Literature values as cited in US20260240991A1, “METHODS OF HEMATOPOIETIC PRECURSOR CELLS MOBILIZATION” (BioLineRx Ltd., priority 2023, published 2026).
Where two headings read alike, the source gives them in different places. Bridges are numbered along the chain shown (N, C = ends). [ ]: non-standard residue; d: D form. The star is where a group is joined. 2Nal = N[C@@H](Cc1ccc2ccccc2c1)C(=O)O; Benzoyl(4-F) = O=C(c1ccc(F)cc1)*; Cit = NC(=O)NCCC[C@H](N)C(=O)O

Key:
PB progenitor cells = conditions: mice
CD34+ cells = conditions: patients with MS

4F-benzoyl-Arg-Arg-Nal-Cys-Tyr-Cit-Lys-DLys-Pro-Tyr-Arg-Cit-Cys-Arg-NH2 ({Benzoyl(4-F)}-RR[2Nal]CY[Cit]K[dK]PYR[Cit]CR-NH2; disulfide 4-13 (inferred)) [Motixafortide]
tolerability (PB CD34+ cells; human, in vivo): well-tolerated | number of apheresis sessions required (PB CD34+ cells; myeloma patients, 900 μg/kg): 1 | effect on mean absolute PB CD34+ cells (PB CD34+ cells; myeloma patients, dose escalation): dose-dependent increase | mean PB CD34+ count (PB CD34+ cells; myeloma patients, highest dose tested 900 μg/kg): 2.06e+07 kg⁻¹ | number of apheresis sessions required (PB CD34+ cells; myeloma patients, lower doses): 2.25 | increase in PB progenitor cells (PB progenitor cells; agent alone): ≤ 10 fold | time of peak of PB progenitor cell increase following administration of the dose (PB progenitor cells; agent alone): 1 to 2 h | PB progenitor cell increase compared with Plerixafor and G-CSF (PB progenitor cells; combined with G-CSF): higher than seen with a combination of Plerixafor and G-CSF | increase in PB progenitor cells over controls (PB progenitor cells; combined with G-CSF): 78 fold

Natalizumab: recombinant humanized monoclonal antibody against d4 subunit of VLA-4
maximal concentration of circulating CD34+ cells (circulating CD34+ cells; MS patients, 72 hours following administration): 10.4 CD34+ cells/μL | persistence of elevation in PB CD34+ cells following administration (circulating CD34+ cells; Zohren and Bonig): at least 1 month | increase in PB CD34+ cells (CD34+ cells): 7 fold | time of maximum absolute CD34+ count following treatment (CD34+ cells): 4 days | increase in BM CD34+ cells (CD34+ cells; dose-dependent): 7 fold
